Laboratory results reported in patent publication US7064124B2, “NF-κB inhibitor containing substituted benzoic acid derivative as active ingredient” (Daiichi Suntory Pharma Co., Ltd., priority 2001, dated 2006).

Row | SMILES | melting point [°C]
1 | COC1=C(OC)C(=O)C(Cc2ccc(O)c(C(=O)Nc3cccc(C(F)(F)F)c3)c2)=C(C)C1=O [Example 152, N-[5-(5,6-Dimethoxy-3-methyl-1,4-benzoquinon-2-yl)methyl-2-hydroxybenzoyl]-3-trifluoromethylaniline] | 127.5 to 130
2 | COC1=C(OC)C(=O)C(Cc2ccc(OC(C)=O)c(C(=O)Nc3ccccc3[N+](=O)[O-])c2)=C(C)C1=O [Example 153, N-[5-(5,6-Dimethoxy-3-methyl-1,4-benzoquinon-2-yl)methyl-2-acetoxybenzoyl]-2-nitroaniline] | 97.5 to 100
3 | COC1=C(OC)C(=O)C(Cc2ccc(O)c(C(=O)Nc3ccccc3[N+](=O)[O-])c2)=C(C)C1=O [Example 154, N-[5-(5,6-Dimethoxy-3-methyl-1,4-benzoquinon-2-yl)methyl-2-hydroxybenzoyl]-2-nitroaniline] | 155 to 156
4 | COC1=C(OC)C(=O)C(Cc2ccc(OC(C)=O)c(C(=O)Nc3ccccn3)c2)=C(C)C1=O [Example 155, N-(Pyridin-2-yl)-5-(5,6-dimethoxy-3-methyl-1,4-benzoquinon-2-yl)methyl-2-acetoxybenzamide] | 124 to 126.5
5 | COC1=C(OC)C(=O)C(Cc2ccc(O)c(C(=O)Nc3ccccn3)c2)=C(C)C1=O [Example 156, N-(Pyridin-2-yl)-5-(5,6-dimethoxy-3-methyl-1,4-benzoquinon-2-yl)methyl-2-hydroxybenzamide] | 180 to 183
6 | COC1=C(OC)C(=O)C(Cc2ccc(OC(C)=O)c(C(=O)NC3CC3)c2)=C(C)C1=O [Example 159, N-Cyclopropyl-5-(5,6-dimethoxy-3-methyl-1,4-benzoquinon-2-yl)methyl-2-acetoxybenzamide] | 95.5 to 98
7 | COC1=C(OC)C(=O)C(Cc2ccc(O)c(C(=O)NC3CC3)c2)=C(C)C1=O [Example 160, N-Cyclopropyl-5-(5,6-dimethoxy-3-methyl-1,4-benzoquinon-2-yl)methyl-2-hydroxybenzamide] | 111 to 112
8 | COC1=C(OC)C(=O)C(Cc2ccc(OC(C)=O)c(C(=O)NC3CCCCC3)c2)=C(C)C1=O [Example 161, N-Cyclohexyl-5-(5,6-dimethoxy-3-methyl-1,4-benzoquinon-2-yl)methyl-2-acetoxybenzamide] | 137.5 to 140
9 | COC1=C(OC)C(=O)C(Cc2ccc(O)c(C(=O)NC3CCCCC3)c2)=C(C)C1=O [Example 162, N-Cyclohexyl-5-(5,6-dimethoxy-3-methyl-1,4-benzoquinon-2-yl)methyl-2-hydroxybenzamide] | 107 to 109
10 | COC1=C(OC)C(=O)C(Cc2cccc(C(=O)Nc3ccc(C(F)(F)F)cc3)c2OC(C)=O)=C(C)C1=O [Example 165, N-[3-(5,6-Dimethoxy-3-methyl-1,4-benzoquinon-2-yl)methyl-2-acetoxybenzoyl]-4-trifluoromethylaniline] | 163 to 166
11 | COC1=C(OC)C(=O)C(Cc2cccc(C(=O)Nc3ccc(C(F)(F)F)cc3)c2O)=C(C)C1=O [Example 166, N-[3-(5,6-Dimethoxy-3-methyl-1,4-benzoquinon-2-yl)methyl-2-hydroxybenzoyl]-4-trifluoromethylaniline] | 129 to 131.5
12 | CCOC(=O)c1ccc(NC(=O)c2cc(CC3=C(C)C(=O)C(OC)=C(OC)C3=O)ccc2OCc2cccnc2)cc1 [Example 167, Ethyl N-[5-(5,6-dimethoxy-3-methyl-1,4-benzoquinon-2-yl)methyl-2-(3-pyridylmethyloxy)benzoyl]-4-aminobenzoate] | 83 to 85.5
13 | COC1=C(OC)C(=O)C(Cc2ccc(OCc3cccnc3)c(C(=O)Nc3ccncc3)c2)=C(C)C1=O [Example 168, N-(Pyridin-4-yl)-5-(5,6-dimethoxy-3-methyl-1,4-benzoquinon-2-yl)methyl-2-(3-pyridylmethyloxy)benzamide] | 116 to 119
14 | COC1=C(OC)C(=O)C(Cc2ccc(OCc3cccnc3)c(C(=O)Nc3cccnc3)c2)=C(C)C1=O [Example 169, N-(Pyridin-3-yl)-5-(5,6-dimethoxy-3-methyl-1,4-benzoquinon-2-yl)methyl-2-(3-pyridylmethyloxy)benzamide] | 135 to 137
15 | COC1=C(OC)C(=O)C(Cc2ccc(OCc3cccnc3)c(C(=O)NC3CC3)c2)=C(C)C1=O [Example 170, N-Cyclopropyl-5-(5,6-dimethoxy-3-methyl-1,4-benzoquinon-2-yl)methyl-2-(3-pyridylmethyloxy)benzamide] | 87 to 89.5
16 | COC1=C(OC)C(=O)C(Cc2ccc(OCc3cccnc3)c(C(=O)Nc3ccc(C(F)(F)F)cc3)c2)=C(C)C1=O [Example 172, N-[5-(5,6-Dimethoxy-3-methyl-1,4-benzoquinon-2-yl)methyl-2-(3-pyridylmethyloxy)benzoyl]-4-trifluoromethylaniline] | 173 to 176
17 | COC1=C(OC)C(=O)C(Cc2cccc(C(=O)Nc3ccc(S(=O)(=O)C(F)(F)F)cc3)c2OC(C)=O)=C(C)C1=O [Example 175, N-[3-(5,6-Dimethoxy-3-methyl-1,4-benzoquinon-2-yl)methyl-2-acetoxybenzoyl]-4-(trifluoromethylsulfonyl)aniline] | 87 to 89
18 | COC1=C(OC)C(=O)C(Cc2cccc(C(=O)Nc3ccc(Cl)cc3Cl)c2O)=C(C)C1=O [Example 177, N-[3-(5,6-Dimethoxy-3-methyl-1,4-benzoquinon-2-yl)methyl-2-hydroxybenzoyl]-2,4-dichloroaniline] | 147 to 150
19 | COC1=C(OC)C(=O)C(Cc2cccc(C(=O)Nc3ccc(N4CCOCC4)cc3)c2OC(C)=O)=C(C)C1=O [Example 178, N-[3-(5,6-Dimethoxy-3-methyl-1,4-benzoquinon-2-yl)methyl-2-acetoxybenzoyl]-4-morpholinoaniline] | 168 to 171
20 | COC1=C(OC)C(=O)C(Cc2cccc(C(=O)Nc3ccc(N4CCOCC4)cc3)c2O)=C(C)C1=O [Example 179, N-[3-(5,6-Dimethoxy-3-methyl-1,4-benzoquinon-2-yl)methyl-2-hydroxybenzoyl]-4-morpholinoaniline] | 177.5 to 180.5
21 | COC1=C(OC)C(=O)C(Cc2ccc(O)c(C(=O)Nc3ccc(OC)nc3OC)c2)=C(C)C1=O [Example 183, N-(2,6-Dimethoxypyridin-3-yl)-5-(5,6-dimethoxy-3-methyl-1,4-benzoquinon-2-yl)methyl-2-hydroxybenzamide] | 119 to 121.5
22 | COC1=C(OC)C(=O)C(Cc2ccc(OC(C)=O)c(C(=O)Nc3ccc(C(=O)O)cc3)c2)=C(C)C1=O [Example 189, N-[5-(5,6-Dimethoxy-3-methyl-1,4-benzoquinon-2-yl)methyl-2-acetoxybenzoyl]-4-aminobenzoic acid] | 199 to 201.5
23 | COC1=C(OC)C(=O)C(Cc2ccc(O)c(C(=O)Nc3ccc(C(=O)O)cc3)c2)=C(C)C1=O [Example 190, N-[5-(5,6-Dimethoxy-3-methyl-1,4-benzoquinon-2-yl)methyl-2-hydroxybenzoyl]-4-aminobenzoic acid] | 257 to 260
24 | COC1=C(OC)C(=O)C(Cc2ccc(O)c(C(=O)Nc3c(Cl)cc(OC(F)(F)F)cc3Cl)c2)=C(C)C1=O [Example 192, N-[5-(5,6-Dimethoxy-3-methyl-1,4-benzoquinon-2-yl)methyl-2-hydroxybenzoyl]-2,6-dichloro-4-trifluoromethoxyaniline] | 138 to 141
